The values below come from ChEMBL document CHEMBL6182926, “Design, Synthesis, and Biological Activity Evaluation of Deuterated Diphenyl Azole Alcohol-Based CYP51 Inhibitors” (J Med Chem, 2025).

Molecules are shown by their SMILES. ≈ marks a conversion by molar mass, not a printed value.

Common to all, as to assay type: functional
The test system of test [1] is Candida tropicalis. Briefly: Antifungal activity against Candida tropicalis CGMCC 2.3739 assessed as inhibition of visible growth.
Test [2] relates to Candida albicans. Briefly: Antifungal activity against Candida albicans CPCC 400616 assessed as inhibition of visible growth.
In test [3] the test system is Nakaseomyces glabratus. Briefly: Antifungal activity against Clinical isolate Candida glabrata assessed as inhibition of visible growth.
For test [4], the system named is Cryptococcus neoformans. Briefly: Antifungal activity against Cryptococcus neoformans CGMCC 2.3161 assessed as inhibition of visible growth.
For test [5], the system named is Candida parapsilosis. Briefly: Antifungal activity against Candida parapsilosis GIM 2.190 assessed as inhibition of visible growth. The note with it: Lodderomyces parapsilosis.
The subject of test [6] is Aspergillus fumigatus. Briefly: Antifungal activity against Aspergillus fumigatus CGMCC 3.7795 assessed as inhibition of visible growth.
Test [7] concerns Pichia kudriavzevii. Briefly: Antifungal activity against Candida krusei AS 2.1045 assessed as inhibition of visible growth.
Test [8] deals with Candida albicans. Briefly: Antifungal activity against Candida albicans SC 5314 assessed as inhibition of visible growth.

`[2H]C([2H])([2H])N(Cc1ccc(-c2ccc(OC(F)(F)F)cc2)nc1)[C@H](C)[C@](O)(Cn1cncn1)c1ccc(F)cc1F`: the MIC80 (in general, an inhibitory concentration at the 80% level, which refers to growth in some studies and to a panel of isolates in others) in test [1] is 0.012 µg/mL (≈ 0.0224 µM); in test [2], 0.012 µg/mL (≈ 0.0224 µM); in test [3], 0.012 µg/mL (≈ 0.0224 µM); in test [4] it was 0.012 µg/mL (≈ 0.0224 µM); in test [5], 0.006 µg/mL (≈ 0.0112 µM); in test [6], 0.025 µg/mL (≈ 0.0466 µM). The results for the MIC80 in test [7] and in test [8] were 0.012 µg/mL (≈ 0.0224 µM) and 0.006 µg/mL (≈ 0.0112 µM), respectively.

For the molecule `[2H]C([2H])([2H])N(Cc1ccc(-c2ccc(OC(F)(F)F)cc2)cc1F)[C@H](C)[C@](O)(Cn1cncn1)c1ccc(F)cc1F`, the MIC80 in test [1] came to 0.012 µg/mL (≈ 0.0217 µM); in test [2], 0.012 µg/mL (≈ 0.0217 µM); in test [3] it was 0.025 µg/mL (≈ 0.0452 µM); in test [4], 0.025 µg/mL (≈ 0.0452 µM); in test [5] it was 0.012 µg/mL (≈ 0.0217 µM); in test [6], 0.05 µg/mL (≈ 0.0903 µM). The MIC80 in test [7] came out at 0.05 µg/mL (≈ 0.0903 µM); in test [8], 0.012 µg/mL (≈ 0.0217 µM).

Consider `[2H]C([2H])([2H])N(Cc1ccc(-c2ccc(C(F)(F)F)cc2)cc1F)[C@H](C)[C@](O)(Cn1cncn1)c1ccc(F)cc1F`, for which the MIC80 amounted to 0.012 µg/mL (≈ 0.0223 µM) in test [1]; 0.012 µg/mL (≈ 0.0223 µM) in test [2]; 0.025 µg/mL (≈ 0.0465 µM) in test [3]; 0.025 µg/mL (≈ 0.0465 µM) in test [4]; 0.012 µg/mL (≈ 0.0223 µM) in test [5]; 0.05 µg/mL (≈ 0.093 µM) in test [6]. The MIC80 in test [7] was 0.05 µg/mL (≈ 0.093 µM); in test [8], 0.012 µg/mL (≈ 0.0223 µM).

As for `[2H]C([2H])([2H])N(Cc1ccc(-c2ccc(Cl)cc2)cc1F)[C@H](C)[C@](O)(Cn1cncn1)c1ccc(F)cc1F`, the MIC80 in test [1] turned out to be 0.006 µg/mL (≈ 0.0119 µM); in test [2] it was 0.006 µg/mL (≈ 0.0119 µM); in test [3], 0.012 µg/mL (≈ 0.0238 µM); in test [4], 0.012 µg/mL (≈ 0.0238 µM); in test [5], 0.006 µg/mL (≈ 0.0119 µM); in test [6] it was 0.025 µg/mL (≈ 0.0496 µM). For the same molecule, the MIC80 came to 0.012 µg/mL (≈ 0.0238 µM) in test [7] and 0.006 µg/mL (≈ 0.0119 µM) in test [8].

On to `CN(Cc1ccc(-c2ccc(OC(F)(F)F)cc2)o1)CC(O)(Cn1cncn1)c1ccc(F)cc1F` (stereo not given), for which the MIC80 in test [1] came to 0.012 µg/mL (≈ 0.0236 µM); in test [2] it was 0.012 µg/mL (≈ 0.0236 µM); in test [3], 0.1 µg/mL (≈ 0.197 µM); in test [4], 0.2 µg/mL (≈ 0.393 µM); in test [5], 0.05 µg/mL (≈ 0.0983 µM); in test [7], 0.1 µg/mL (≈ 0.197 µM). In addition, the MIC80 in test [8] worked out at 0.025 µg/mL (≈ 0.0492 µM).

`CN(Cc1nc(-c2ccc(C(F)(F)F)cc2)cs1)CC(O)(Cn1cncn1)c1ccc(F)cc1F` (stereo not given): the MIC80 in test [1] came to 0.025 µg/mL (≈ 0.0491 µM); in test [2] it was 0.025 µg/mL (≈ 0.0491 µM); in test [3], 3.2 µg/mL (≈ 6.28 µM); in test [4], 0.2 µg/mL (≈ 0.393 µM); in test [5], 0.012 µg/mL (≈ 0.0236 µM); in test [7] it was 0.8 µg/mL (≈ 1.57 µM). In addition, in test [8], the MIC80 came to 0.012 µg/mL (≈ 0.0236 µM).

As to `CN(Cc1ccc(-c2cccc(F)c2)cn1)CC(O)(Cn1cncn1)c1ccc(F)cc1F` (stereo not given), the MIC80 in test [1] worked out at 0.012 µg/mL (≈ 0.0265 µM); in test [2], 0.025 µg/mL (≈ 0.0551 µM); in test [3], 0.8 µg/mL (≈ 1.76 µM); in test [4], 0.05 µg/mL (≈ 0.11 µM); in test [5], 0.012 µg/mL (≈ 0.0265 µM); in test [7], 0.2 µg/mL (≈ 0.441 µM). Moreover, the MIC80 in test [8] amounted to 0.025 µg/mL (≈ 0.0551 µM).

Regarding `CN(Cc1ccc(-c2ccc(OC(F)(F)F)cc2)cn1)CC(O)(Cn1cncn1)c1ccc(F)cc1F` (stereo not given), the MIC80 in test [1] turned out to be 0.012 µg/mL (≈ 0.0231 µM); in test [2], 0.012 µg/mL (≈ 0.0231 µM); in test [3], 0.05 µg/mL (≈ 0.0963 µM); in test [4], 0.025 µg/mL (≈ 0.0481 µM); in test [5], 0.006 µg/mL (≈ 0.0116 µM); in test [7], 0.025 µg/mL (≈ 0.0481 µM). For the same molecule, the MIC80 in test [8] amounted to 0.012 µg/mL (≈ 0.0231 µM).

With `CC(C)c1ccc(-c2ccc(CN(C)CC(O)(Cn3cncn3)c3ccc(F)cc3F)nc2)cc1` (stereo not given), the MIC80 in test [1] was 0.012 µg/mL (≈ 0.0251 µM); in test [2], 0.012 µg/mL (≈ 0.0251 µM); in test [3] it was 0.2 µg/mL (≈ 0.419 µM); in test [4] it was 0.025 µg/mL (≈ 0.0523 µM); in test [5], 0.012 µg/mL (≈ 0.0251 µM); in test [7], 0.1 µg/mL (≈ 0.209 µM). Moreover, the MIC80 in test [8] is 0.012 µg/mL (≈ 0.0251 µM).

For `CN(Cc1ccc(-c2ccc(Cl)cc2)s1)CC(O)(Cn1cncn1)c1ccc(F)cc1F` (stereo not given), the MIC80 came to 0.006 µg/mL (≈ 0.0126 µM) in test [1]; 0.012 µg/mL (≈ 0.0253 µM) in test [2]; 0.2 µg/mL (≈ 0.421 µM) in test [3]; 0.1 µg/mL (≈ 0.211 µM) in test [4]; 0.006 µg/mL (≈ 0.0126 µM) in test [5]; 0.05 µg/mL (≈ 0.105 µM) in test [7]. In test [8], the MIC80 amounted to 0.006 µg/mL (≈ 0.0126 µM).

Turning to `CCc1ccc(-c2ccc(CN(C)CC(O)(Cn3cncn3)c3ccc(F)cc3F)nc2)cc1` (stereo not given), the MIC80 in test [1] worked out at 0.012 µg/mL (≈ 0.0259 µM); in test [2] it was 0.012 µg/mL (≈ 0.0259 µM); in test [3], 0.1 µg/mL (≈ 0.216 µM); in test [4], 0.025 µg/mL (≈ 0.0539 µM); in test [5], 0.012 µg/mL (≈ 0.0259 µM); in test [7], 0.05 µg/mL (≈ 0.108 µM). In test [8], the MIC80 is 0.025 µg/mL (≈ 0.0539 µM).

As for `CN(Cc1ccc(-c2ccc(C(F)(F)F)cc2)o1)CC(O)(Cn1cncn1)c1ccc(F)cc1F` (stereo not given), the MIC80 in test [1] came out at 0.012 µg/mL (≈ 0.0244 µM); in test [2] it was 0.025 µg/mL (≈ 0.0508 µM); in test [3], 0.2 µg/mL (≈ 0.406 µM); in test [4], 0.4 µg/mL (≈ 0.812 µM); in test [5] it was 0.05 µg/mL (≈ 0.102 µM); in test [7], 0.2 µg/mL (≈ 0.406 µM). Moreover, in test [8], the MIC80 amounted to 0.025 µg/mL (≈ 0.0508 µM).

In the case of `OC(CN(Cc1ccc(-c2ccc(Cl)cc2)cc1)C1CC1)(Cn1cncn1)c1ccc(F)cc1F` (stereo not given), the MIC80 in test [1], in test [2], in test [3], in test [4], in test [5] and in test [7] was over 3.2 µg/mL throughout. In addition, in test [8], the MIC80 was over 3.2 µg/mL.
